Consider four compounds from PubChem BioAssay (NCI).

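These data come from cells grown in 96-well plates and exposed to compound for 48 hours at five concentrations. TGI is the concentration that stops growth completely.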 Some results are limits rather than exact numbers.

The test system of the first assay is HT29 colon. In words: growth of human tumour cells (NCI), 48 h.
`O=c1[nH]c2[nH]c(=S)[nH]c(=S)c2[nH]1`: the TGI was > 100 µM.
On the same count and under the same terms, for `CN=c1sc2c(n1C)C(=O)c1ccccc1C2=O` the value was 10.4 µM; for `COC(=O)c1cc(S(=O)(=O)NC2=NCC(C)NN2)c(S)cc1Cl` (stereo not given), > 100 µM.

Another assay relates to MCF7 breast. The experiment in a line: growth of human tumour cells (NCI), 48 h.
Turning to `COC1(OC)c2occc2C(=N)c2ccc(=O)oc21`, the TGI is > 100 µM.
The same measure, in the same setting: then `CN=c1sc2c(n1C)C(=O)c1ccccc1C2=O`, with 3.8 µM.
As for `COC(=O)c1cc(S(=O)(=O)NC2=NCC(C)NN2)c(S)cc1Cl` (stereo not given), the TGI is > 100 µM.

A further assay has as its system CCRF-CEM leukemia. The experiment in a line: growth of human tumour cells (NCI), 48 h.
Turning to `COC1(OC)c2occc2C(=N)c2ccc(=O)oc21`, the TGI was > 100 µM.
The compound `CN=c1sc2c(n1C)C(=O)c1ccccc1C2=O` registered a TGI of 44.4 µM.
Turning to `COC(=O)c1cc(S(=O)(=O)NC2=NCC(C)NN2)c(S)cc1Cl` (stereo not given), the TGI is > 100 µM.

For another assay, the system named is OVCAR-3 ovarian. In words: growth of human tumour cells (NCI), 48 h.
Regarding `COC1(OC)c2occc2C(=N)c2ccc(=O)oc21`, the TGI is > 100 µM.
Still for that read-out and setting: for `CN=c1sc2c(n1C)C(=O)c1ccccc1C2=O` the value was 11.3 µM; for `COC(=O)c1cc(S(=O)(=O)NC2=NCC(C)NN2)c(S)cc1Cl` (stereo not given), > 100 µM.

The next assay concerns SK-MEL-2 melanoma. The experiment in a line: growth of human tumour cells (NCI), 48 h.
As for `COC1(OC)c2occc2C(=N)c2ccc(=O)oc21`, the TGI is > 100 µM.
Same read-out and setting: for `O=c1[nH]c2[nH]c(=S)[nH]c(=S)c2[nH]1` the value was > 100 µM; for `CN=c1sc2c(n1C)C(=O)c1ccccc1C2=O`, 6.14 µM; for `COC(=O)c1cc(S(=O)(=O)NC2=NCC(C)NN2)c(S)cc1Cl` (stereo not given), 84.5 µM.

The subject of another assay is HOP-92 NSCLC. The experiment in a line: growth of human tumour cells (NCI), 48 h.
As for `COC1(OC)c2occc2C(=N)c2ccc(=O)oc21`, the TGI was > 100 µM.
With `O=c1[nH]c2[nH]c(=S)[nH]c(=S)c2[nH]1`, the TGI was > 100 µM.
Same read-out and setting: then `CN=c1sc2c(n1C)C(=O)c1ccccc1C2=O`, with 29.9 µM.

For another assay, the system named is MALME-3M melanoma. The experiment in a line: growth of human tumour cells (NCI), 48 h.
For the compound `COC1(OC)c2occc2C(=N)c2ccc(=O)oc21`, the TGI was found to be 33.5 µM.
On to `O=c1[nH]c2[nH]c(=S)[nH]c(=S)c2[nH]1`, for which the TGI is > 100 µM.
As for `CN=c1sc2c(n1C)C(=O)c1ccccc1C2=O`, the TGI stood at 1.14 µM.
Compound `COC(=O)c1cc(S(=O)(=O)NC2=NCC(C)NN2)c(S)cc1Cl` (stereo not given) yielded a TGI of 97.5 µM.

The next assay deals with RXF 393 renal. In words: growth of human tumour cells (NCI), 48 h.
On to `COC1(OC)c2occc2C(=N)c2ccc(=O)oc21`, for which the TGI was > 100 µM.
For `O=c1[nH]c2[nH]c(=S)[nH]c(=S)c2[nH]1`, the TGI is > 100 µM.
On the same count and under the same terms, then `CN=c1sc2c(n1C)C(=O)c1ccccc1C2=O`, with 9.01 µM.

In the next assay the test system is BT-549 breast. In words: growth of human tumour cells (NCI), 48 h.
As for `COC1(OC)c2occc2C(=N)c2ccc(=O)oc21`, the TGI was > 100 µM.
Regarding `O=c1[nH]c2[nH]c(=S)[nH]c(=S)c2[nH]1`, the TGI was > 100 µM.
In the case of `CN=c1sc2c(n1C)C(=O)c1ccccc1C2=O`, the TGI is 3.58 µM.
On the same count and under the same terms, for `COC(=O)c1cc(S(=O)(=O)NC2=NCC(C)NN2)c(S)cc1Cl` (stereo not given) the value was > 100 µM.

The subject of the next assay is SR leukemia. The experiment in a line: growth of human tumour cells (NCI), 48 h.
For the compound `COC1(OC)c2occc2C(=N)c2ccc(=O)oc21`, the TGI is > 100 µM.
The same measure, in the same setting: for `O=c1[nH]c2[nH]c(=S)[nH]c(=S)c2[nH]1` the value was > 100 µM.
Compound `CN=c1sc2c(n1C)C(=O)c1ccccc1C2=O` returned a TGI of 8.97 µM.
For `COC(=O)c1cc(S(=O)(=O)NC2=NCC(C)NN2)c(S)cc1Cl` (stereo not given), the TGI is > 100 µM.

A further assay relates to CAKI-1 renal. The experiment in a line: growth of human tumour cells (NCI), 48 h.
On to `COC1(OC)c2occc2C(=N)c2ccc(=O)oc21`, for which the TGI was > 100 µM.
Same read-out and setting: for `O=c1[nH]c2[nH]c(=S)[nH]c(=S)c2[nH]1` the value was > 100 µM.
The compound `CN=c1sc2c(n1C)C(=O)c1ccccc1C2=O` had a TGI of 15.5 µM.
For `COC(=O)c1cc(S(=O)(=O)NC2=NCC(C)NN2)c(S)cc1Cl` (stereo not given), the TGI was > 100 µM.

Another assay deals with HCC-2998 colon. In words: growth of human tumour cells (NCI), 48 h.
For `COC1(OC)c2occc2C(=N)c2ccc(=O)oc21`, the TGI is > 100 µM.
In the case of `O=c1[nH]c2[nH]c(=S)[nH]c(=S)c2[nH]1`, the TGI was > 100 µM.
On the same count and under the same terms, then `CN=c1sc2c(n1C)C(=O)c1ccccc1C2=O`, with 20.4 µM; and `COC(=O)c1cc(S(=O)(=O)NC2=NCC(C)NN2)c(S)cc1Cl` (stereo not given), with > 100 µM.

Another assay has as its system KM12 colon. The experiment in a line: growth of human tumour cells (NCI), 48 h.
`O=c1[nH]c2[nH]c(=S)[nH]c(=S)c2[nH]1`: the TGI was > 100 µM.
Same read-out and setting: then `CN=c1sc2c(n1C)C(=O)c1ccccc1C2=O`, with 13.5 µM; and `COC(=O)c1cc(S(=O)(=O)NC2=NCC(C)NN2)c(S)cc1Cl` (stereo not given), with > 100 µM.

A further assay has as its system SF-268 CNS. In words: growth of human tumour cells (NCI), 48 h.
Turning to `COC1(OC)c2occc2C(=N)c2ccc(=O)oc21`, the TGI is > 100 µM.
Turning to `O=c1[nH]c2[nH]c(=S)[nH]c(=S)c2[nH]1`, the TGI is > 100 µM.
`CN=c1sc2c(n1C)C(=O)c1ccccc1C2=O` registered a TGI of 14.5 µM.
`COC(=O)c1cc(S(=O)(=O)NC2=NCC(C)NN2)c(S)cc1Cl` (stereo not given): the TGI came out at 60.6 µM.

A further assay has as its system SNB-75 CNS. The experiment in a line: growth of human tumour cells (NCI), 48 h.
`CN=c1sc2c(n1C)C(=O)c1ccccc1C2=O` showed a TGI of 4.33 µM.
As for `COC(=O)c1cc(S(=O)(=O)NC2=NCC(C)NN2)c(S)cc1Cl` (stereo not given), the TGI was 75.3 µM.

The subject of the next assay is SF-295 CNS. The experiment in a line: growth of human tumour cells (NCI), 48 h.
In the case of `COC1(OC)c2occc2C(=N)c2ccc(=O)oc21`, the TGI was > 100 µM.
Still for that read-out and setting: for `O=c1[nH]c2[nH]c(=S)[nH]c(=S)c2[nH]1` the value was > 100 µM.
For the compound `CN=c1sc2c(n1C)C(=O)c1ccccc1C2=O`, the TGI turned out to be 3.77 µM.
Turning to `COC(=O)c1cc(S(=O)(=O)NC2=NCC(C)NN2)c(S)cc1Cl` (stereo not given), the TGI was > 100 µM.
